This note sets out measurements from BindingDB's records for doi:10.1007/s00044-008-9125-0 (n/a, 2009).

This assay in a line: Inhibition of Bos taurus (bovine) heart cAMP-dependent phosphodiesterase assessed as inhibition of cyclic AMP to 5' AMP after 20 min by spectrophotometry.

Turning to `O=c1c2cc(Br)cc(Br)c2nc(-c2ccccc2)n1-c1nc2ccc(Br)cc2s1`, the IC50 (usually the concentration that inhibits the measured activity by half) stood at 1640 µM.

As for `O=c1c2ccccc2nc(-c2ccccc2)n1-c1nc2ccc(Br)cc2s1`, the half-maximal inhibitory concentration (IC50) worked out at 2130 µM.

On to `Cc1cc(C)c2nc(-n3c(-c4ccccc4)nc4c(Br)cc(Br)cc4c3=O)sc2c1`, for which the IC50 was 2070 µM.

As to `COc1cccc2sc(-n3c(-c4ccccc4)nc4ccccc4c3=O)nc12`, the IC50 amounted to 2320 µM.

Turning to `COc1ccc2sc(-n3c(-c4ccccc4)nc4c(Br)cc(Br)cc4c3=O)nc2c1`, the 50% inhibitory concentration (IC50) was 2090 µM.

As for `O=c1c2ccccc2nc(-c2ccccc2)n1-c1nc2ccc([N+](=O)[O-])cc2s1`, the concentration for half-maximal inhibition (IC50) worked out at 2640 µM.

As for `O=c1c2ccccc2nc(-c2ccccc2)n1-c1nc2cc(Cl)ccc2s1`, the 50% inhibitory concentration (IC50) worked out at 2110 µM.

As to `Cc1cccc2sc(-n3c(-c4ccccc4)nc4c(Br)cc(Br)cc4c3=O)nc12`, the IC50 was found to be 2030 µM.

Take `COc1ccc2nc(-n3c(-c4ccccc4)nc4ccccc4c3=O)sc2c1`: the IC50 came out at 2420 µM.

Take `Cc1ccc2sc(-n3c(-c4ccccc4)nc4ccccc4c3=O)nc2c1`: the IC50 turned out to be 2270 µM.

Turning to `COc1cccc2sc(-n3c(-c4ccccc4)nc4c(Br)cc(Br)cc4c3=O)nc12`, the concentration for half-maximal inhibition (IC50) came out at 2070 µM.

Take `CCOc1cccc2sc(-n3c(-c4ccccc4)nc4c(Br)cc(Br)cc4c3=O)nc12`: the IC50 came out at 2160 µM.

`O=c1c2cc(Br)cc(Br)c2nc(-c2ccccc2)n1-c1nc2ccccc2s1`: the IC50 was determined as 1930 µM.

As for `COc1ccc2sc(-n3c(-c4ccccc4)nc4ccccc4c3=O)nc2c1`, the IC50 was 2330 µM.

Regarding `O=c1c2cc(Br)cc(Br)c2nc(-c2ccccc2)n1-c1nc2cc(Cl)ccc2s1`, the IC50 came out at 1440 µM.

Turning to `O=c1c2cc(Br)cc(Br)c2nc(-c2ccccc2)n1-c1nc2ccc([N+](=O)[O-])cc2s1`, the IC50 stood at 1520 µM.

In the case of `O=c1c2ccccc2nc(-c2ccccc2)n1-c1nc2ccccc2s1`, the IC50 was determined as 2100 µM.

In the case of `Cc1cc(C)c2nc(-n3c(-c4ccccc4)nc4ccccc4c3=O)sc2c1`, the IC50 worked out at 2410 µM.

`CCOc1ccc2sc(-n3c(-c4ccccc4)nc4c(Br)cc(Br)cc4c3=O)nc2c1`: the IC50 came to 2150 µM.

As for `CCOc1ccc2sc(-n3c(-c4ccccc4)nc4ccccc4c3=O)nc2c1`, the IC50 worked out at 2490 µM.

With `COc1ccc2nc(-n3c(-c4ccccc4)nc4c(Br)cc(Br)cc4c3=O)sc2c1`, the half-maximal inhibitory concentration (IC50) turned out to be 2120 µM.

In the case of `CCOc1cccc2sc(-n3c(-c4ccccc4)nc4ccccc4c3=O)nc12`, the IC50 turned out to be 2420 µM.

Turning to `CCOc1ccc2nc(-n3c(-c4ccccc4)nc4ccccc4c3=O)sc2c1`, the IC50 amounted to 2430 µM.

For `CCOc1ccc2nc(-n3c(-c4ccccc4)nc4c(Br)cc(Br)cc4c3=O)sc2c1`, the half-maximal inhibitory concentration (IC50) is 2120 µM.

For `Cc1cccc2sc(-n3c(-c4ccccc4)nc4ccccc4c3=O)nc12`, the IC50 stood at 2280 µM.

Turning to `Cc1ccc2sc(-n3c(-c4ccccc4)nc4c(Br)cc(Br)cc4c3=O)nc2c1`, the IC50 stood at 2020 µM.
